Measured values as given in ChEMBL document CHEMBL4665892, “Structural Basis for the Binding Mechanism of Human Serum Albumin Complexed with Cyclic Peptide Dalbavancin” (J Med Chem, 2020).

Assay: Protein binding in human plasma
Assay type: ADME, cell-free
Settings: read-out: PPB (converted)

## CCCCCCCCCC(=O)N[C@@H](Cc1c[nH]c2ccccc12)C(=O)N[C@H](CC(N)=O)C(=O)N[C@@H](CC(=O)O)C(=O)N[C@@H]1C(=O)NCC(=O)N[C@@H](CCCN)C(=O)N[C@@H](CC(=O)O)C(=O)N[C@H](C)C(=O)N[C@@H](CC(=O)O)C(=O)NCC(=O)N[C@H](CO)C(=O)N[C@@H]([C@H](C)CC(=O)O)C(=O)N[C@@H](CC(=O)c2ccccc2N)C(=O)O[C@@H]1C
  fraction unbound: 0.15
